For seven compounds, IC50 and MIC results are on record in US10800791B2, “Triazole ACC inhibitors and uses thereof” (Gilead Apollo, LLC, priority 2015, dated 2020).

One experiment has as its target fungal (fACC2) (UniProt Q00955). To be noted: read-out: fACC2 (in vitro ACC2 Inhibition Assay, IC50), ADP-Glo, 5 nM ACC2, 20 μM ATP, 20 μM acetyl-CoA. (ADP-Glo first removes unused ATP, then detects ADP through luciferase.)
A further experiment concerns C. krusei. Nature of the experiment: Antifungal Activity Assay (broth microtiter MIC), C. krusei. The class given is cell-based, Candida krusei. The note with it: Pichia kudriavzevii, ATCC6258, 48 h, ATCC 6258, 3 replicates, MIC recorded at 48 h, read-out: MIC, C. krusei ATCC 6258. The essentials:
(§1)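 Broth microdilution per CLSI M27-A3 in RPMI 1640+MOPS, inoculum 2.5×10^3 CFU/mL final from overnight Sabouraud dextrose agar cultures at 35° C. Compounds diluted from DMSO stock to 128 μg/mL in water. MIC read visually versus growth control at 48 h.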

For the next experiment, the target named is human (hACC2) (Homo sapiens, UniProt O00763). Nature of the experiment: In vitro ACC inhibition assay (ADP-Glo), hACC2. The class given is biochemical. The note with it: 5 nM ACC2, 20 μM ATP, 20 μM acetyl-CoA. How it is done:
The detailed procedure is as follows. […] 10 μL ADP glo reagent was added. […] 20 μL kinase detection reagent was added.

A further experiment relates to C. albicans. Nature of the experiment: Antifungal Activity Assay (broth microtiter MIC), C. albicans. Type of experiment: cell-based, Candida albicans. To be noted: Candida albicans, ATCC90028, 48 h, ATCC 90028, 3 replicates, MIC recorded at 48 h, read-out: MIC, C. albicans ATCC 90028. In a few lines: as §1
In another experiment the test system is C. parapsilosis. Nature of the experiment: Antifungal Activity Assay (broth microtiter MIC), C. parapsilosis. Type of experiment: cell-based, Candida parapsilosis. To be noted: Lodderomyces parapsilosis, ATCC22019, 48 h, ATCC 22019, 3 replicates, MIC recorded at 48 h, read-out: MIC, C. parapsilosis ATCC 22019. The essentials: as §1

≈ marks a conversion by molar mass, not a printed value. Where two headings read alike, the source gives them in different places.

Chain of human (hACC2) (O00763 whole entry): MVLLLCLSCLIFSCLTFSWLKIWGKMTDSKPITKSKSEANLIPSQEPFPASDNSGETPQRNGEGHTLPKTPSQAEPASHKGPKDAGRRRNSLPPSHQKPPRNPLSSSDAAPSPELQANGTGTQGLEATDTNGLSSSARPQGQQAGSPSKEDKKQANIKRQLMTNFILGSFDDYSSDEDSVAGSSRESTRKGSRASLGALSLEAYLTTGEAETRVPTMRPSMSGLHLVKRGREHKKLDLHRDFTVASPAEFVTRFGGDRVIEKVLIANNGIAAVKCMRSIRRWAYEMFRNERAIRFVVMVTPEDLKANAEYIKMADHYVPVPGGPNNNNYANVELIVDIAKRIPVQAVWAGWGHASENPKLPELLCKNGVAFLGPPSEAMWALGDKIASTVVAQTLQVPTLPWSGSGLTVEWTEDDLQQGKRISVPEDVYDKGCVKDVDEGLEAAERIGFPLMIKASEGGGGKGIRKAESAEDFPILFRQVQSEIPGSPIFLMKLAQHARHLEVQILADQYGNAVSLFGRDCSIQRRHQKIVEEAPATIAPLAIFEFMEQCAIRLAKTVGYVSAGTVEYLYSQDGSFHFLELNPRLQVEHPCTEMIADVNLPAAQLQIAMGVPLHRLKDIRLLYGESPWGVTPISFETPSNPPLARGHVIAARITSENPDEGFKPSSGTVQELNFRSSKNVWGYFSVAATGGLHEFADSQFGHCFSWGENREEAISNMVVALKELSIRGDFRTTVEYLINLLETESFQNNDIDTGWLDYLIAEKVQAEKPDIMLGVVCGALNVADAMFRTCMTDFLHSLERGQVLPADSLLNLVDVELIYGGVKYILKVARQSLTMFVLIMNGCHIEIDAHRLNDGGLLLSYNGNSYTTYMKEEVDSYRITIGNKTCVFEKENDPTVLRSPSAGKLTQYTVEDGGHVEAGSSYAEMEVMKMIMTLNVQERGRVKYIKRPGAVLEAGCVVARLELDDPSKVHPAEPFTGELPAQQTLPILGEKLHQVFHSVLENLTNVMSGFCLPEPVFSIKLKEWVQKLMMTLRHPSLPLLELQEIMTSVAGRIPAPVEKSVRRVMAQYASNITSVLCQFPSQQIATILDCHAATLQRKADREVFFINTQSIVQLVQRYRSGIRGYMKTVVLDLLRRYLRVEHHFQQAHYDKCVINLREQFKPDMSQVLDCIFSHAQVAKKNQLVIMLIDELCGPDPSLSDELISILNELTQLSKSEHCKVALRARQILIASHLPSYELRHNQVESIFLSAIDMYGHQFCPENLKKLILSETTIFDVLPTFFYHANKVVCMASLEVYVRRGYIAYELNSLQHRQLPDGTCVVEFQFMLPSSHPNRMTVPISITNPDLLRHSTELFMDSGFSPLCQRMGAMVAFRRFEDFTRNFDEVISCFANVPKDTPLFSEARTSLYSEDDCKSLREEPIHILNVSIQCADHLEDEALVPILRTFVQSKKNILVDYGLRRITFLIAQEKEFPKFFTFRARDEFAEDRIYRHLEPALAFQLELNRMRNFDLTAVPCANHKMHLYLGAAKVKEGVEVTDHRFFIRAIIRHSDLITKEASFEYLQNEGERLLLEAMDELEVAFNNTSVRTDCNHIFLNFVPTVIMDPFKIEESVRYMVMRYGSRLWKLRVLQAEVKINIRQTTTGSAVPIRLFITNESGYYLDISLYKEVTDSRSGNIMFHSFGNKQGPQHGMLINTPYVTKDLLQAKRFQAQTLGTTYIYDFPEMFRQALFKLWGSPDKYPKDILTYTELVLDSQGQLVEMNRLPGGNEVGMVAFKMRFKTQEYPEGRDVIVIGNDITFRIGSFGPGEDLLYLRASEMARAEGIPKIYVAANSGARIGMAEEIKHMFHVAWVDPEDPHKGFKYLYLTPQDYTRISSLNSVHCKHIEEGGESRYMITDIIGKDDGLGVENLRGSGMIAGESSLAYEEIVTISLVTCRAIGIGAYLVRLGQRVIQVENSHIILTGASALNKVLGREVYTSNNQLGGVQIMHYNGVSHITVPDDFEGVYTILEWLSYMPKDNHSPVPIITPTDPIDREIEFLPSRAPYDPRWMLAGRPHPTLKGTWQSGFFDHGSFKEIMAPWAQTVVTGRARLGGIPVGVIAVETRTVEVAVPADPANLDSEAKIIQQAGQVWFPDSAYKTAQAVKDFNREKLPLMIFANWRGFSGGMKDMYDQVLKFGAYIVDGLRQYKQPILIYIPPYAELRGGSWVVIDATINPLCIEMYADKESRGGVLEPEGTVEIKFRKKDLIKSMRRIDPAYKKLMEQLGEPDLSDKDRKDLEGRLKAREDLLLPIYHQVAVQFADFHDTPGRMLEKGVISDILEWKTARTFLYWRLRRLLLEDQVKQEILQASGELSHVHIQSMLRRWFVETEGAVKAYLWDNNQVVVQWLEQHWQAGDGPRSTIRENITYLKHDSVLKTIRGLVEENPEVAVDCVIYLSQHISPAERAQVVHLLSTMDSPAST
Chain of fungal (fACC2) (Q00955 whole entry): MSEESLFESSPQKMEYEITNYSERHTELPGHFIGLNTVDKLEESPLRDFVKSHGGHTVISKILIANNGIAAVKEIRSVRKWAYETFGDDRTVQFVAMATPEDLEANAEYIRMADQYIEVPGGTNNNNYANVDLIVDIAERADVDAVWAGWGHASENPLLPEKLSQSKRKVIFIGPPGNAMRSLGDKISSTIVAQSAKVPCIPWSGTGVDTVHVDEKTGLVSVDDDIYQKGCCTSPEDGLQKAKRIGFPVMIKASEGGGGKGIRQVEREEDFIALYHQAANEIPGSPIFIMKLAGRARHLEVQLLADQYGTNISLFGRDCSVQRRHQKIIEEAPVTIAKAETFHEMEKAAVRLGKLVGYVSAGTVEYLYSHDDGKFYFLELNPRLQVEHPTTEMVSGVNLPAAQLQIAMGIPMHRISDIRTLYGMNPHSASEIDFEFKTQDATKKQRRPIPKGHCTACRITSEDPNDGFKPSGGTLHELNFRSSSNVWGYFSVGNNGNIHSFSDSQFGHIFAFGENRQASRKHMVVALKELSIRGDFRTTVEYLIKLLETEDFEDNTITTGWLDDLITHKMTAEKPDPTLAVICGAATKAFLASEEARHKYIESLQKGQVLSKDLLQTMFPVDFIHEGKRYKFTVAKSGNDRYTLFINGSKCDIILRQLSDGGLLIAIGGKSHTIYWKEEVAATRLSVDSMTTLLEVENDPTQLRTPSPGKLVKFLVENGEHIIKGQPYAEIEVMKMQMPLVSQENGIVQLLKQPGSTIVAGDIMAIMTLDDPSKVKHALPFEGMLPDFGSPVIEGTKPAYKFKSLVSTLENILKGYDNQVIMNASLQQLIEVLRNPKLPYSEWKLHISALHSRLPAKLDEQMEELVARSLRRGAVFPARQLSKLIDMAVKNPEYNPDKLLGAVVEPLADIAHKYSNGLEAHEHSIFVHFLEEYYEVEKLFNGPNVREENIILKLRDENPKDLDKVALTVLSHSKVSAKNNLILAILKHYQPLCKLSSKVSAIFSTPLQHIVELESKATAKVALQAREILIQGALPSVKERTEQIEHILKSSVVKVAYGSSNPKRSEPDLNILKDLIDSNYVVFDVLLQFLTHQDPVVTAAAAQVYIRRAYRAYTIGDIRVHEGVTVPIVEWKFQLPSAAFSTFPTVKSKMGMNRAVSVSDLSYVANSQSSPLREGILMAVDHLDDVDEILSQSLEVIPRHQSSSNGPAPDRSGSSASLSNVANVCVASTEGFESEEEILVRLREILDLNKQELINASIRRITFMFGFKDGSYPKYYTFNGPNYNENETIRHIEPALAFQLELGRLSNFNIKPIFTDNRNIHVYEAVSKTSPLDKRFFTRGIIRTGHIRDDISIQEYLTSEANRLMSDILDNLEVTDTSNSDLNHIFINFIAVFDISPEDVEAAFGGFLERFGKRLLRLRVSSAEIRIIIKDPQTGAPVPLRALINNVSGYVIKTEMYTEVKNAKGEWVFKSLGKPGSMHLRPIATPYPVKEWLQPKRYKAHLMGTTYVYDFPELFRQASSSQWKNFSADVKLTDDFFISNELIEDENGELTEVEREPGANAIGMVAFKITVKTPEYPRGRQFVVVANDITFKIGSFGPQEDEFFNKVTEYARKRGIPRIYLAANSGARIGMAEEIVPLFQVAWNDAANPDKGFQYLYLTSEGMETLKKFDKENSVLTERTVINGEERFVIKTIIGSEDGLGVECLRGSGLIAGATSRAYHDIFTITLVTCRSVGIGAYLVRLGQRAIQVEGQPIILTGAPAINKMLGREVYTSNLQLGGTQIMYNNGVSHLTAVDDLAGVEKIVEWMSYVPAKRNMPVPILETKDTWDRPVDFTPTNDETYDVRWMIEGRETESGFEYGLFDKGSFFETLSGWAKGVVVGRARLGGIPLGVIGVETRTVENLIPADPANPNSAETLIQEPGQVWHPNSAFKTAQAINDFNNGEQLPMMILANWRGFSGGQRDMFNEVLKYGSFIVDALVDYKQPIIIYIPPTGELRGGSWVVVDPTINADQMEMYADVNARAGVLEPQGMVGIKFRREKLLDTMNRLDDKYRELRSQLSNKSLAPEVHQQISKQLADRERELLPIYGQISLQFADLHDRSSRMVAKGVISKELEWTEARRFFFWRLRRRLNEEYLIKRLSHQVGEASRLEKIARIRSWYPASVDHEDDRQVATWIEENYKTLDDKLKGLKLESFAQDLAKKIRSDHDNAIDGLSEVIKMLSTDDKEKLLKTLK

What is called IC50 is the concentration needed to halve the response being measured. One may read the MIC as the lowest concentration that inhibits growth of the organism. For the compound `C=CCNC(=O)C(C)(C)n1c(=O)c2c(C)c(-n3nccn3)sc2n(C[C@H](OC(C)C)c2cc(F)ccc2OC)c1=O` [Compound I-120], the IC50 was in the range of 1 to 5 nM at fungal (fACC2) (Table 2a); 1 to 5 nM at fungal (fACC2) (Table 2b, additional results); 5 to 10 nM against human (hACC2) (Table 2a); 5 to 10 nM against human (hACC2) (Table 2b, additional results). Moreover, the minimal inhibitory concentration (MIC) with C. krusei (Table 3a) was in the range of 0.25 to 1 µg/mL (≈ 0.428 to 1.71 µM); in the experiment with C. krusei (Table 3b (additional results)) it was 0.25 to 1 µg/mL (≈ 0.428 to 1.71 µM); with C. albicans (Table 3a), 0.25 to 1 µg/mL (≈ 0.428 to 1.71 µM); in the experiment on C. albicans (Table 3b (additional results)), 1.01 to 2 µg/mL (≈ 1.73 to 3.42 µM); in the experiment with C. parapsilosis (Table 3a) it was 0.25 to 1 µg/mL (≈ 0.428 to 1.71 µM); in the experiment with C. parapsilosis (Table 3b (additional results)), 2.01 to 4 µg/mL (≈ 3.44 to 6.84 µM).
Regarding `COc1ccc(F)cc1[C@H](Cn1c(=O)n(C(C)(C)C(=O)N2CC=CC2)c(=O)c2c(C)c(-n3nccn3)sc21)OCC(C)O` (stereo partly shown) [Compound I-121], the IC50 was in the range of 1 to 5 nM at fungal (fACC2) (Table 2a); 1 to 5 nM at fungal (fACC2) (Table 2b, additional results); 1 to 5 nM on human (hACC2) (Table 2a); 1 to 5 nM against human (hACC2) (Table 2b, additional results). In addition, the MIC with C. krusei (Table 3a) is 0.25 to 1 µg/mL (≈ 0.408 to 1.63 µM); in the experiment on C. krusei (Table 3b (additional results)), more than 4.01 µg/mL; in the experiment on C. albicans (Table 3a), 1.1 to 2 µg/mL (≈ 1.8 to 3.26 µM); with C. albicans (Table 3b (additional results)) it was 1.01 to 2 µg/mL (≈ 1.65 to 3.26 µM); in the experiment with C. parapsilosis (Table 3a) it was 1.1 to 2 µg/mL (≈ 1.8 to 3.26 µM); in the experiment on C. parapsilosis (Table 3b (additional results)) it was 2.01 to 4 µg/mL (≈ 3.28 to 6.53 µM).
On to `COCCOc1ccc(F)cc1[C@H](Cn1c(=O)n(C(C)(C)C(=O)NC(C)C)c(=O)c2c(C)c(-n3nccn3)sc21)OCCOC` [Compound I-122], for which the IC50 at fungal (fACC2) (Table 2a) fell in the range of 1 to 5 nM; on fungal (fACC2) (Table 2b, additional results), 1 to 5 nM; against human (hACC2) (Table 2a) it was 10 to 40 nM; on human (hACC2) (Table 2b, additional results), 10 to 40 nM. For the same compound, the MIC lay in the range of 0.25 to 1 µg/mL (≈ 0.387 to 1.55 µM) with C. krusei (Table 3a); 1.01 to 2 µg/mL (≈ 1.56 to 3.09 µM) in the experiment on C. krusei (Table 3b (additional results)); 2.1 to 4 µg/mL (≈ 3.25 to 6.18 µM) in the experiment on C. albicans (Table 3a); 2.01 to 4 µg/mL (≈ 3.11 to 6.18 µM) in the experiment with C. albicans (Table 3b (additional results)); 1.1 to 2 µg/mL (≈ 1.7 to 3.09 µM) in the experiment with C. parapsilosis (Table 3a); 1.01 to 2 µg/mL (≈ 1.56 to 3.09 µM) with C. parapsilosis (Table 3b (additional results)).
On to `COc1ccc(F)cc1[C@H](Cn1c(=O)n(C(C)(C)C(N)=O)c(=O)c2c(C)c(-n3nccn3)sc21)OCCC(=O)C(F)(F)F` [Compound I-123], for which the IC50 was 1 to 5 nM at fungal (fACC2) (Table 2a); 1 to 5 nM on fungal (fACC2) (Table 2b, additional results); 10 to 40 nM against human (hACC2) (Table 2a); 10 to 40 nM against human (hACC2) (Table 2b, additional results). In addition, the MIC in the experiment on C. krusei (Table 3a) was 1.1 to 2 µg/mL (≈ 1.76 to 3.19 µM); with C. krusei (Table 3b (additional results)) it was more than 4.01 µg/mL; with C. albicans (Table 3a) it was 2.1 to 4 µg/mL (≈ 3.35 to 6.38 µM); with C. albicans (Table 3b (additional results)) it was more than 4.01 µg/mL; in the experiment on C. parapsilosis (Table 3a), 2.1 to 4 µg/mL (≈ 3.35 to 6.38 µM); with C. parapsilosis (Table 3b (additional results)), more than 4.01 µg/mL.
For the compound `CCc1ccc(F)cc1[C@H](Cn1c(=O)n(C(C)(C)C(=O)O)c(=O)c2c(C)c(-n3nccn3)sc21)OCCO` [Compound I-125], the IC50 lay within 1 to 5 nM on fungal (fACC2) (Table 2a); 0.3 to 1 nM at fungal (fACC2) (Table 2b, additional results); 1 to 5 nM against human (hACC2) (Table 2a); 1 to 5 nM against human (hACC2) (Table 2b, additional results). The MIC in the experiment with C. krusei (Table 3a) is 2.1 to 4 µg/mL (≈ 3.85 to 7.33 µM); in the experiment with C. krusei (Table 3b (additional results)), more than 4.01 µg/mL; in the experiment with C. albicans (Table 3a), 2.1 to 4 µg/mL (≈ 3.85 to 7.33 µM); with C. albicans (Table 3b (additional results)), more than 4.01 µg/mL; in the experiment on C. parapsilosis (Table 3a), 2.1 to 4 µg/mL (≈ 3.85 to 7.33 µM); in the experiment with C. parapsilosis (Table 3b (additional results)), more than 4.01 µg/mL.
`COCCO[C@@H](Cn1c(=O)n(C(C)(C)C(=O)OC(C)C)c(=O)c2c(C)c(-n3nccn3)sc21)c1cc(F)ccc1OC` [Compound I-127]: the IC50 at fungal (fACC2) (Table 2a) was in the range of 1 to 5 nM; at fungal (fACC2) (Table 2b, additional results), 1 to 5 nM; on human (hACC2) (Table 2a), 10 to 40 nM; on human (hACC2) (Table 2b, additional results) it was 10 to 40 nM. In addition, the MIC is 0.25 to 1 µg/mL (≈ 0.414 to 1.66 µM) with C. krusei (Table 3a); 2.01 to 4 µg/mL (≈ 3.33 to 6.63 µM) in the experiment with C. krusei (Table 3b (additional results)); 1.1 to 2 µg/mL (≈ 1.82 to 3.31 µM) in the experiment on C. albicans (Table 3a); 2.01 to 4 µg/mL (≈ 3.33 to 6.63 µM) in the experiment on C. albicans (Table 3b (additional results)); 1.1 to 2 µg/mL (≈ 1.82 to 3.31 µM) in the experiment with C. parapsilosis (Table 3a); more than 4.01 µg/mL in the experiment on C. parapsilosis (Table 3b (additional results)).
`COCCO[C@@H](Cn1c(=O)n(C(C)(C)C(=O)OC2CCC2)c(=O)c2c(C)c(-n3nccn3)sc21)c1cc(F)ccc1OC` [Compound I-128]: the IC50 at fungal (fACC2) (Table 2a) lay in the range of 1 to 5 nM; on fungal (fACC2) (Table 2b, additional results), 1 to 5 nM; against human (hACC2) (Table 2a) it was 10 to 40 nM; against human (hACC2) (Table 2b, additional results), 10 to 40 nM. Moreover, the MIC in the experiment on C. krusei (Table 3a) was 1.1 to 2 µg/mL (≈ 1.79 to 3.25 µM); in the experiment with C. krusei (Table 3b (additional results)) it was 2.01 to 4 µg/mL (≈ 3.26 to 6.5 µM); in the experiment on C. albicans (Table 3a), 2.1 to 4 µg/mL (≈ 3.41 to 6.5 µM); in the experiment with C. albicans (Table 3b (additional results)), more than 4.01 µg/mL; in the experiment with C. parapsilosis (Table 3a), 2.1 to 4 µg/mL (≈ 3.41 to 6.5 µM); in the experiment with C. parapsilosis (Table 3b (additional results)), 2.01 to 4 µg/mL (≈ 3.26 to 6.5 µM).
